One series has as its target T1, Farnesyltransferase (Saccharomyces cerevisiae S288c, UniProt P22007+P29703).
T1 sequence (P29703 whole entry): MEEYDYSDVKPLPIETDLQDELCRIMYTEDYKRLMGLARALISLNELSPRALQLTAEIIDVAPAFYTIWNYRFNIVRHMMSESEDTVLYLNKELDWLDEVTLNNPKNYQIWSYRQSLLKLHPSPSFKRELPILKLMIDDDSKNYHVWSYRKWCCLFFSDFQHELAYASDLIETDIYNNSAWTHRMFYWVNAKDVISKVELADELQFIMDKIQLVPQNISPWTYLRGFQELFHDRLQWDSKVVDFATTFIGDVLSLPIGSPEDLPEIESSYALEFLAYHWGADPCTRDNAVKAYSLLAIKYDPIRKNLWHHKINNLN
T1 sequence (P22007 whole entry): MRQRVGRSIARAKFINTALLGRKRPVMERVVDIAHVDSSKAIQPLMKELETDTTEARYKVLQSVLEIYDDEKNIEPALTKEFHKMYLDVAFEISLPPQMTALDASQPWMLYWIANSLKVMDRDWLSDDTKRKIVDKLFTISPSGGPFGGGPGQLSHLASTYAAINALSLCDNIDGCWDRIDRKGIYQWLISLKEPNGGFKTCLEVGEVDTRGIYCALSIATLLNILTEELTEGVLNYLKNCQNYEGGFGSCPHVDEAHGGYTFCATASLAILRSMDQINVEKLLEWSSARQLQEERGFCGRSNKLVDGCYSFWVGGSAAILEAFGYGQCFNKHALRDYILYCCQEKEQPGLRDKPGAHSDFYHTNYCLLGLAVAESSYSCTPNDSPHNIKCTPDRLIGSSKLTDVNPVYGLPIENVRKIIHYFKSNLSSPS
The experiment in a line: (§1) Dissociation constant against yeast farnesyltransferase. The format is protein-complex assay.

Substrate in series [1]: CC(C)=CCC/C(C)=C/CC/C(C)=C/COP(=O)(O)OP(=O)(O)O
The series is described as §1. The format is protein-complex assay. The conditions noted are these: Saccharomyces cerevisiae.

As for `CC(C)=C/C=C/C(C)=C/C=C/C(C)=C/COP(=O)(O)OP(=O)(O)O`, the Ki on Farnesyltransferase was determined as 8.8 µM.

B1: Farnesyltransferase (Saccharomyces cerevisiae S288c), P29703+P22007 (protein)
chain 1: MEEYDYSDVKPLPIETDLQDELCRIMYTEDYKRLMGLARALISLNELSPRALQLTAEIIDVAPAFYTIWNYRFNIVRHMMSESEDTVLYLNKELDWLDEVTLNNPKNYQIWSYRQSLLKLHPSPSFKRELPILKLMIDDDSKNYHVWSYRKWCCLFFSDFQHELAYASDLIETDIYNNSAWTHRMFYWVNAKDVISKVELADELQFIMDKIQLVPQNISPWTYLRGFQELFHDRLQWDSKVVDFATTFIGDVLSLPIGSPEDLPEIESSYALEFLAYHWGADPCTRDNAVKAYSLLAIKYDPIRKNLWHHKINNLN
chain 2: MRQRVGRSIARAKFINTALLGRKRPVMERVVDIAHVDSSKAIQPLMKELETDTTEARYKVLQSVLEIYDDEKNIEPALTKEFHKMYLDVAFEISLPPQMTALDASQPWMLYWIANSLKVMDRDWLSDDTKRKIVDKLFTISPSGGPFGGGPGQLSHLASTYAAINALSLCDNIDGCWDRIDRKGIYQWLISLKEPNGGFKTCLEVGEVDTRGIYCALSIATLLNILTEELTEGVLNYLKNCQNYEGGFGSCPHVDEAHGGYTFCATASLAILRSMDQINVEKLLEWSSARQLQEERGFCGRSNKLVDGCYSFWVGGSAAILEAFGYGQCFNKHALRDYILYCCQEKEQPGLRDKPGAHSDFYHTNYCLLGLAVAESSYSCTPNDSPHNIKCTPDRLIGSSKLTDVNPVYGLPIENVRKIIHYFKSNLSSPS
B1: the Km in series [1] worked out at 27 µM.
